Measurements taken from patent US20160320408A1, “METHODS OF T CELL EPITOPE PROFILING, MAKING T CELL COMPOSITIONS, AND TREATING DISEASES” (priority 2013, published 2016).

Key:
Assay type in all cases: cell-based, human
[1] = test system: PBMC from a healthy donor
[2] = test system: donor cells (PBMC)
[3] = test system: PBMC from a healthy donor; remark: listed apart in the source

For DIKNDLYEKTLNDYKAIANK [TT1], which “IFNγ over a positivity threshold set at 2.5-fold above the negative control (no peptide) cultures” value [1] is on record?
The value was 0 pg/mL.

How did the “generation of peptide-reactive T-cell line (in words)” value [2] turn out when IDKISDVSTIVPYIGPALNI [TT4] was run?
Its value is “successfully generated”.

What about the “IFNγ response (in words)” value [1] of the same sequence?
Its value is “only one operator (HK) detecting a robust response”.

How did the “IFNγ over a positivity threshold set at 2.5-fold above the negative control (no peptide) cultures” value [1] turn out when IVVYNLQSKITLPNDRTTPV [TT2] was run?
The value was 0 pg/mL.

Which “detection of IFNγ secreting T-cells, direct ex vivo ELISpot (in words)” value [3] does the source give for NLVPMVATV [CMVpp65] here?
Its value is “readily detectable”.
